The values below come from ChEMBL document CHEMBL1135262, “Noncovalent tripeptidic thrombin inhibitors incorporating amidrazone, amine and amidine functions at P1” (Bioorg Med Chem Lett, 2002).

In data set [1] the target is T1, Serine protease 1 (Bos taurus, UniProt P00760).
T1 sequence (P00760 whole entry): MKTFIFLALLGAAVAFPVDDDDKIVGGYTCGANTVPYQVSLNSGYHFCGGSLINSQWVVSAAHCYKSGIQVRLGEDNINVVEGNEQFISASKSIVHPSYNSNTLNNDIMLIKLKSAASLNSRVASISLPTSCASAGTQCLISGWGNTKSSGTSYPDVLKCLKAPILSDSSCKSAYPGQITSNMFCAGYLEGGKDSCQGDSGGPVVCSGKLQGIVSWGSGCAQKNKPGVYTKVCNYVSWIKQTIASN
As to the kind of experiment: Binding affinity against bovine trypsin.

The target of data set [2] is T2, Coagulation factor X (Homo sapiens, UniProt P00742). As to the kind of experiment: Compound was evaluated for the binding affinity against human Coagulation factor Xa.
T2 sequence (P00742 41-179 limits assumed): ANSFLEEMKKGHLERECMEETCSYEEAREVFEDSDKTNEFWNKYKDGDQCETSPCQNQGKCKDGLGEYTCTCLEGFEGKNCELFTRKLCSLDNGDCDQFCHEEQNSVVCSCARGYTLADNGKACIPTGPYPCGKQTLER
T2 sequence (P00742 235-488 limits assumed): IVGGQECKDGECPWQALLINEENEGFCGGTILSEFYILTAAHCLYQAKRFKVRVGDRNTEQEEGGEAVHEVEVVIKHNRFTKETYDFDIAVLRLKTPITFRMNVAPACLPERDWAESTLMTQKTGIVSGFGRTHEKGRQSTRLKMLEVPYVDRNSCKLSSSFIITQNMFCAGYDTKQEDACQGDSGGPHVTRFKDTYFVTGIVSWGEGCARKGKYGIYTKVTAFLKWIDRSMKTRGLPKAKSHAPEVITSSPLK
Data set [3] concerns the target Prothrombin (Homo sapiens, UniProt P00734). As to the kind of experiment: Binding affinity against human thrombin.
Data set [4] is filed under the species Rattus norvegicus. As to the kind of experiment: animal or person. The conditions noted are these: iv, read-out: Inhibition.
Data set [5] concerns the target T2, Coagulation factor X. As to the kind of experiment: Binding affinity for human Coagulation factor Xa; Inactive.
The subject of data set [6] is Rattus norvegicus. Briefly: Compound at a dose 1 mg/kg was administered intravenously and evaluated for its ability to inhibit thrombus formation in rat model of venous thrombosis. As to conditions: route intravenous; call rule not given here. Format: functional.
Data set [7] in a line: Compound was evaluated for its pharmacokinetic parameter maximum plasma concentration (Cmax) after oral administration to rats. Format: ADME, organism-based. Further details: route oral. As to conditions: rat.
Data set [8] can be described thus: Compound was evaluated for its pharmacokinetic parameter maximum area under curve AUCmax. Set-up: time AUCmax. Format: ADME, organism-based. As to conditions: rat, in vivo.
Data set [9] deals with Rattus norvegicus. As to the kind of experiment: Compound (dose 5 mg/kg) was administered intravenously and evaluated for its ability to inhibit thrombus formation in rat model of venous thrombosis; value ranges from 30-67%. Format: functional. The conditions noted are these: route intravenous.
For data set [10], the system named is Rattus norvegicus. Briefly: Compound was evaluated for its ability to inhibit thrombus formation in rat model of venous thrombosis at a dose 0.5 mg/kg. As to conditions: read-out: Inhibition.
Data set [11] relates to Rattus norvegicus. As to the kind of experiment: Compound was evaluated for its ability to inhibit thrombus formation in rat model of venous thrombosis at a dose 1 mg/kg. The conditions noted are these: read-out: Inhibition.
For data set [12], the system named is Rattus norvegicus. As to the kind of experiment: Compound at a dose 5 mg/kg was administered intravenously and evaluated for its ability to inhibit thrombus formation in rat model of venous thrombosis; value ranges from 30-67%. Format: functional. The conditions noted are these: route intravenous.

As for `CS(=O)(=O)N[C@H](Cc1ccc(Cl)c(Cl)c1)C(=O)N1CCC[C@H]1C(=O)NCc1ccc(C(=N)N)cc1`, the figures for the Ki in data set [1], in data set [2] and in data set [3] were 0.8 nM, 120 nM and 0.05 nM, respectively.

In the case of `CS(=O)(=O)N[C@@H](C(=O)N1CCC[C@H]1C(=O)NCc1csc(CN)c1)C(c1ccccc1)c1ccccc1`, the inhibition in vivo at 5 mg/kg in data set [4] stood at 30%. Moreover, the values for the Ki in [1] and in [2] were 606 nM and 100000 nM, respectively.

For the compound `CS(=O)(=O)N[C@@H](C(=O)N1CCC[C@H]1C(=O)NCc1ccc(/C(N)=N/N)s1)C(c1ccccc1)c1ccccc1`, the values for the Ki in [1] and in [2] were 12 nM and 193 nM, respectively.

In the case of `CS(=O)(=O)N[C@@H](C(=O)N1CCC[C@H]1C(=O)NCc1ccc(CN)c(N)c1)C(c1ccccc1)c1ccccc1`, the Ki (commonly the equilibrium dissociation constant of an inhibitor or competing ligand from its target) in [5] is “Not Active”; in data set [1], 11 nM; in data set [3], 12 nM.

Regarding `CS(=O)(=O)N[C@@H](C(=O)N1CCC[C@H]1C(=O)NCc1csc(C(=N)NN)c1)C(c1ccccc1)c1ccccc1`, the figures for the Ki result in data set [5], in [1] and in [3] were “Not Active”, 540 nM and 1.8 nM, respectively.

As to `CS(=O)(=O)N[C@@H](C(=O)N1CCC[C@H]1C(=O)NCc1ccc(CN)cc1)C(c1ccccc1)c1ccccc1`, the Ki entry in [5] is “Not Active”; in [1], 9.9 nM; in data set [3], 4 nM. In data set [4], the inhibition in vivo at 5 mg/kg came out at 30%.

Turning to `N=C(NN)c1ccc(CNC(=O)[C@@H]2CCCN2C(=O)[C@H](NCC(=O)O)C(c2ccccc2)c2ccccc2)s1`, the results for the Ki entry in data set [5], in [1] and in [3] were “Not Active”, 1100 nM and 31 nM, respectively.

Consider `CS(=O)(=O)N[C@@H](C(=O)N1CCC[C@H]1C(=O)NCc1ccc(C(=N)N)cc1)C(c1ccccc1)c1ccccc1`, for which the Ki in [1] was found to be 0.7 nM; in data set [2], 300 nM; in [3], 0.003 nM. Besides, in data set [6], the inhibition in vivo at 1 mg/kg came out at 70%. The Cmax (commonly the peak of the concentration-time curve) in [7] came out at 2700 ng/mL. Further, the AUC (commonly concentration integrated over time) in data set [8] was 263 µg·h/mL.

In the case of `CS(=O)(=O)N[C@@H](C(=O)N1CCC[C@H]1C(=O)NCc1ccc(C(=N)N)s1)C(c1ccccc1)c1ccccc1`, the figures for the Ki in data set [1], in data set [2] and in [3] were 0.6 nM, 360 nM and 0.005 nM, respectively.

Turning to `CS(=O)(=O)N[C@@H](C(=O)N1CCC[C@H]1C(=O)NCc1cc(CN)cs1)C(c1ccccc1)c1ccccc1`, the results for the Ki entry in data set [5], in [1] and in data set [3] were “Not Active”, 68 nM and 2.4 nM, respectively. The inhibition in vivo at 5 mg/kg in data set [9] turned out to be 30%.

Turning to `CS(=O)(=O)N[C@@H](C(=O)N1CCC[C@H]1C(=O)NCc1ccc(CN)nc1)C(c1ccccc1)c1ccccc1`, the Ki entry in data set [5] was “Not Active”; in data set [1], 220 nM; in data set [3], 6 nM. Further, the inhibition in vivo at 5 mg/kg in data set [4] was found to be 30%.

For the compound `N=C(N)c1ccc(CNC(=O)[C@@H]2CCCN2C(=O)[C@H](NS(=O)(=O)O)C(c2ccccc2)c2ccccc2)cc1.O=C(O)C(F)(F)F`, the Ki in data set [1] worked out at 4.4 nM; in data set [3] it was 0.1 nM. In data set [7], the Cmax is 550 ng/mL. In addition, the AUC in data set [8] came out at 35 µg·h/mL.

With `COC(=O)N[C@@H](C(=O)N1CCC[C@H]1C(=O)NCc1ccc(C(=N)N)cc1)C(c1ccccc1)c1ccccc1.O=C(O)C(F)(F)F`, the Ki in data set [1] was 0.31 nM; in data set [3] it was 0.036 nM. Besides, the Cmax in data set [7] was found to be 3900 ng/mL. For the same compound, the AUC in [8] was 594 µg·h/mL.

Regarding `Cc1cc(CNC(=O)[C@@H]2CCCN2C(=O)[C@H](NS(C)(=O)=O)C(c2ccccc2)c2ccccc2)ccc1CN`, the Ki entry is “Not Active” in data set [5], 110 nM in data set [1] and 32 nM in data set [3].

On to `N=C(N)c1ccc(CNC(=O)[C@@H]2CCCN2C(=O)[C@H](NS(N)(=O)=O)C(c2ccccc2)c2ccccc2)cc1.O=C(O)C(F)(F)F`, for which, in [10], the inhibition in vivo at 0.5 mg/kg is 80%. In addition, the Ki in data set [1] amounted to 0.3 nM; in data set [3] it was 0.003 nM. This compound returned a Cmax in data set [7] of 2800 ng/mL. The inhibition in vivo at 1 mg/kg in [11] was determined as 100%. For the same compound, the AUC in data set [8] came to 272 µg·h/mL.

For the compound `CC(=O)N[C@@H](C(=O)N1CCC[C@H]1C(=O)NCc1ccc(C(=N)NN)s1)C(c1ccccc1)c1ccccc1`, the Ki entry in data set [5] is “Not Active”; in data set [3], 105 nM.

Consider `CS(=O)(=O)N[C@@H](C(=O)N1CCC[C@H]1C(=O)NCc1ccc(C(=N)N)cc1)C1CCCCC1`, for which the Ki worked out at 9.9 nM in [1], 5000 nM in data set [2] and 0.5 nM in data set [3].

In turn, `CC(=O)N[C@@H](C(=O)N1CCC[C@H]1C(=O)NCc1ccc(C(=N)N)cc1)C(c1ccccc1)c1ccccc1.O=C(O)C(F)(F)F` yielded a Ki in data set [3] of 0.16 nM. The Cmax in data set [7] stood at 3000 ng/mL. The AUC in [8] was determined as 244 µg·h/mL.

As for `CC(C)(C)OC(=O)N[C@@H](C(=O)N1CCC[C@H]1C(=O)NCc1ccc(C(=N)NN)s1)C(c1ccccc1)c1ccccc1`, the Ki entry in data set [5] was “Not Active”.

Take `CS(=O)(=O)N[C@H](CC1CCCCC1)C(=O)N1CCC[C@H]1C(=O)NCc1ccc(C(=N)N)cc1`: the Ki turned out to be 1.3 nM in data set [1], 200 nM in data set [2] and 0.02 nM in data set [3].

In the case of `N=C(N)c1ccc(CNC(=O)[C@@H]2CCCN2C(=O)[C@H](NS(=O)(=O)NC2CCCCC2)C(c2ccccc2)c2ccccc2)cc1.O=C(O)C(F)(F)F`, the Ki in data set [1] was 0.25 nM; in [3], 0.003 nM. In data set [7], the Cmax is less than 300 ng/mL.

As for `CS(=O)(=O)N[C@@H](C(=O)N1CCC[C@H]1C(=O)NCc1ccc(CN)s1)C(c1ccccc1)c1ccccc1`, the Ki result is “Not Active” in data set [5] and 85 nM in data set [1]. In [12], this compound returned an inhibition in vivo at 5 mg/kg of 30%.

Consider `CS(=O)(=O)N[C@@H](C(=O)N1CCC[C@H]1C(=O)NCc1cc(C(N)=NN)cs1)C(c1ccccc1)c1ccccc1`, for which the Ki in data set [1] was 250 nM; in data set [2], 59000 nM; in [3] it was 2.2 nM.

Regarding `N=C(N)c1ccc(CNC(=O)[C@@H]2CCCN2C(=O)[C@H](N)C(c2ccccc2)c2ccccc2)cc1.O=C(O)C(F)(F)F`, in [1], the inhibition constant (Ki) was found to be 2.5 nM. The same compound came in with a Cmax in data set [7] of 1400 ng/mL. In [8], this compound had an exposure (AUC) of 107 µg·h/mL.

Take `N=C(N)c1ccc(CNC(=O)[C@@H]2CCCN2C(=O)[C@H](NCC(=O)O)C(c2ccccc2)c2ccccc2)cc1.O=C(O)C(F)(F)F`: the Ki was determined as 3 nM in [1] and 0.015 nM in [3]. Besides, the concentration in [7] peaked (Cmax) at 1300 ng/mL. The compound further registered an AUC in [8] of 120 µg·h/mL.

For `CS(=O)(=O)N[C@@H](C(=O)N1CCC[C@H]1C(=O)NCc1ccc(C(=N)NN)cc1)C(c1ccccc1)c1ccccc1`, the Ki entry in data set [5] was “Not Active”; in data set [1], 150 nM; in data set [3], 47 nM.

As for `COP(=O)(N[C@@H](C(=O)N1CCC[C@H]1C(=O)NCc1ccc(C(=N)N)cc1)C(c1ccccc1)c1ccccc1)OC.O=C(O)C(F)(F)F`, the Ki turned out to be 2.9 nM in data set [1] and 0.044 nM in data set [3]. The concentration in data set [7] peaked (Cmax) at 4000 ng/mL. In data set [8], this compound registered an AUC of 271 µg·h/mL.

In [1], `COC(=O)N[C@@H](C(=O)N1CCC[C@H]1C(=O)NCC#Cc1c[nH]cn1)C(c1ccccc1)c1ccccc1` displayed a Ki of 24000 nM.

Regarding `N=C(N)c1ccc(CNC(=O)[C@@H]2CCCN2C(=O)[C@H](Nc2ccccc2)C(c2ccccc2)c2ccccc2)cc1.O=C(O)C(F)(F)F`, the Ki in [1] was 1.5 nM. Moreover, in [7], the Cmax is 300 ng/mL. Further, the AUC in data set [8] amounted to 53 µg·h/mL.

On to `N=C(N)c1ccc(CNC(=O)[C@@H]2CCCN2C(=O)[C@H](NS(=O)(=O)Cc2ccccc2)C(c2ccccc2)c2ccccc2)cc1.O=C(O)C(F)(F)F`, for which the figures for the Ki in data set [1] and in [3] were 0.58 nM and 0.005 nM, respectively. Besides, in [7], the Cmax was 900 ng/mL. For the same compound, the AUC in [8] turned out to be 68 µg·h/mL.
